Measurements: US20070293530A1, “SULFAMIDE AND SULFAMATE DERIVATIVES AS HISTONE DEACETYLASE INHIBITORS” (METHYLGENE INC., priority 2006, published 2007)

Biological target: HDAC enzyme
Test: Inhibition of Histone Deacetylase Enzymatic Activity (Assay Examples 1 and 2)
Format: biochemical
Conditions: HDAC isoform not specified; fluorogenic Boc-Lys(Ac)-AMC or Boc-Lys(trifluoroacetyl)-AMC substrate
Procedure: The following protocol is used to assay the compounds of the invention. In the assay, the buffer used is 25 mM HEPES, pH 8.0, 137 mM NaCl, 2.7 mM KCl, 1 mM MgCl2 and the subtrate is Boc-Lys(Ac)-AMC in a 50 mM stock solution in DMSO. The enzyme stock solution is 4.08 μg/mL in buffer.
The compounds are pre-incubated (2 μl in DMSO diluted to 13 μl in buffer for transfer to assay plate) with enzyme (20 μl of 4.08 μg/ml) for 10 minutes at room temperature (35 μl pre-incubation volume). The mixture is pre-incubated for 5 minutes at room temperature. The reaction is started by bringing the temperature to 37° C. and adding 16 μl substrate. Total reaction volume is 50 μl. The reaction is stopped after 20 minutes by addition of 50 μl developer, prepared as directed by Biomol (Fluor-de-Lys developer, Cat. #KI-105). A plate is incubated in the dark for 10 minutes at room temperature before reading (λEx=360 nm, λEm=470 nm, Cutoff filter at 435 nm).
Alternatively, HDAC inhibitory activity was determined using the following assay.
A 30 mM stock of Boc-Lys(trifluoroacetyl)-AMC substrate is prepared in DMSO. 2 μL of test compound in DMSO is diluted to 50 μL in buffer (25 mM HEPES, pH 8.0, 137 mM NaCl, 2.7 mM KCl, 1 mM MgCl2, 0.1% BSA) and pre-incubated with HDAC enzyme (30 μL of a final enzyme concentration of 0.1-0.2 nM) for 10 minutes at room temperature. Reaction is started by adding 18 μL Boc-Lys(trifluoroacetyl)-AMC substrate and incubating at 37° C. for 20-30 minutes. The reaction is stopped by adding 50 μL trypsin (1 mg/mL) and a known HDAC inhibitor (such as LAQ-824). The plate is then incubated in the dark for 20 minutes at room temperature and read with Ex=360 nm, Em=470 nm, cutoff filter at 435 nm.
In the table, A≦0.2 μM; 0.2 μM<B≦0.5 μM; […]; and 1 μM<D≦6 μM.

Structure (SMILES) | IC50
COC(=O)N[C@@H](CCCCNS(N)(=O)=O)C(=O)Nc1nc(-c2ccccc2)cs1 [Compound 319, (S)-methyl 1-oxo-1-(4-phenyl-thiazol-2-ylamino)-6-(sulfamoyl-amino)-hexan-2-ylcarbamate] | ≤ 200 nM
NS(=O)(=O)NCCCC[C@H](NC(=O)NCc1ccc(F)cc1)C(=O)Nc1nc(-c2ccccc2)cs1 [Compound 240, (S)-2-(3-(4-fluoro-benzyl)-ureido)-N-(4-phenyl-thiazol-2-yl)-6-(sulfa-moylamino)-hexanamide] | 200 to 500 nM
Cc1ccc(-c2nc([C@H](CCCCNS(N)(=O)=O)NC(=O)OCc3ccccc3)c[nH]2)cc1 [Compound 348, (S)-benzyl 5-(sulfamoyl-amino)-1-(2-p-tolyl-1H-imidazol-4-yl)pentyl-carbamate] | 200 to 500 nM
NS(=O)(=O)NCCCCCC(=O)Nc1cccc(-c2ccccc2)c1 [Compound 4, N-(Biphenyl-3-yl)-6-(sulfamoylamino)hexanamide] | ≤ 200 nM
NS(=O)(=O)NCCCC[C@H](NC(=O)c1cccc2cccnc12)C(=O)Nc1cccc2cccnc12 [Compound 209, (S)-N-(1-oxo-1-(quinolin-8-ylamino)-6-(sulfamoyl-amino)hex-an-2-yl)-quinoline-8-carboxamide] | 200 to 500 nM
NS(=O)(=O)NCCCC[C@H](NC(=O)Cc1ccccc1)C(=O)Nc1nc(-c2ccccc2)cs1 [Compound 230a, (S)-2-(2-phenylacetamido)-N-(4-phenylthiazol-2-yl)-6-(sulfamoylamino)hexanamide] | ≤ 200 nM
NS(=O)(=O)NCCCC[C@H](NC(=O)OCc1ccccc1)c1n[nH]c(-c2ccccc2)n1 [Compound 335, (S)-benzyl 1-(5-phenyl-1H-1,2,4-triazol-3-yl)-5-(sulfamoylamino)pentylcarbamate] | ≤ 200 nM
NS(=O)(=O)NCCCCCC(=O)Nc1cc(OCc2ccccn2)cc2cccnc12 [Compound 79, N-(6-(pyridin-2-ylmethoxy)-quinolin-8-yl)-6-(sulfa-moylamino)-hexanamide] | ≤ 200 nM
CCOC(=O)N[C@@H](CCCCNS(N)(=O)=O)C(=O)Nc1nc(-c2ccccc2)cs1 [Compound 252, (S)-ethyl 1-oxo-1-(4-phenylthiazol-2-ylamino)-6-(sulfamoylamino)hexan-2-ylcarbamate] | 200 to 500 nM
NS(=O)(=O)NCCCC[C@H](NC(=O)OCc1ccccc1)c1csc(-c2ccc(Br)cc2)n1 [Compound 361, (S)-benzyl 1-(2-(4-bromo-phenyl)-thiazol-4-yl)-5-(sulfamoyl-amino)-pentyl-carbamate] | 200 to 500 nM
COc1cc(NC(=O)CCCCCNS(N)(=O)=O)c2ncccc2c1 [Compound 40, N-(6-methoxy-quinolin-8-yl)-6-(sulfamoyl-amino)-hexanamide] | ≤ 200 nM
COc1ccc(-c2nc([C@H](CCCCNS(N)(=O)=O)NC(=O)OCc3ccccc3)c[nH]2)cc1 [Compound 327, (S)-benzyl 1-(2-(4-methoxyphenyl)-1H-imidazol-4-yl)-5-(sulfamoylamino)pentylcarbamate] | ≤ 200 nM
NS(=O)(=O)NCCCC[C@H](NC(=O)OCc1ccccc1)c1csc(Nc2ccccc2)n1 [Compound 364, (S)-benzyl 1-(2-(phenyl-amino)-thiazol-4-yl)-5-(sulfamoyl-amino)-pentyl-carbamate] | 500 to 1000 nM
COc1ccc(S(=O)(=O)N[C@@H](CCCCNS(N)(=O)=O)C(=O)Nc2cccc3cccnc23)cc1OC [Compound 201, (S)-2-(3,4-dimethoxyphenylsulfonamido)-N-(quinolin-8-yl)-6-(sulfamoylamino)hexanamide] | 200 to 500 nM

The remaining lines, values ahead:

IC50 | Structure (SMILES)
≤ 200 nM | NS(=O)(=O)NCCCC[C@H](NC(=O)OCc1ccccc1)C(=O)Nc1cccc2cccnc12 [Compound 55, (S)-benzyl 1-oxo-1-(quinolin-8-ylamino)-6-(sulfamoyl-amino)-hexan-2-ylcarbamate]
200 to 500 nM | COc1cccc(-c2csc(NC(=O)[C@H](CCCCNS(N)(=O)=O)NC(=O)OCc3ccccc3)n2)c1 [Compound 309, (S)-benzyl 1-(4-(3-methoxy-phenyl)-thiazol-2-ylamino)-1-oxo-6-(sulfamoyl-amino)-hexan-2-ylcarbamate]
≤ 200 nM | NS(=O)(=O)NCCCC[C@H](NC(=O)OCc1ccccc1)C(=O)Nc1nc(-c2ccccc2)cs1 [Compound 60, (S)-benzyl 1-oxo-1-(4-phenylthiazol-2-ylamino)-6-(sulfamoyl-amino)-hexan-2-ylcarbamate]
≤ 200 nM | NS(=O)(=O)NCCCC[C@H](NC(=O)OCc1ccccc1)C(=O)Nc1cnc2ccccc2c1 [Compound 274, (S)-benzyl 1-oxo-1-(quinolin-3-ylamino)-6-(sulfamoyl-amino)-hexan-2-ylcarbamate]
≤ 200 nM | COc1ccc(NC(=O)c2csc(NC(=O)[C@H](CCCCNS(N)(=O)=O)NC(=O)OCc3ccccc3)n2)cc1 [Compound 314, (S)-benzyl 1-(4-(4-methoxy-phenyl-carbamoyl)-thiazol-2-ylamino)-1-oxo-6-(sulfamoyl-amino)-hexan-2-ylcarbamate]
200 to 500 nM | NS(=O)(=O)NCCCC[C@H](NC(=O)c1cc2ccccc2o1)C(=O)Nc1cccc2cccnc12 [Compound 51, (S)-N-(1-oxo-1-(quinolin-8-ylamino)-6-(sulfamoyl-amino)-hexan-2-yl)-benzofuran-2-carboxamide]
200 to 500 nM | NS(=O)(=O)NCCCC[C@H](NC(=O)NCc1ccccc1)C(=O)Nc1cccc2cccnc12 [Compound 203, (S)-2-(3-benzylureido)-N-(quinolin-8-yl)-6-(sulfamoylamino)hexanamide]
≤ 200 nM | CC(=O)N[C@@H](CCCCNS(N)(=O)=O)C(=O)Nc1cccc2cccnc12 [Compound 34, (S)-2-Acetamido-N-(quinolin-8-yl)-6-(sulfamoylamino)hexanamide]
≤ 200 nM | NS(=O)(=O)NCCCC[C@H](NC(=O)Nc1ccccc1)C(=O)Nc1cccc2cccnc12 [Compound 211, (S)-2-(3-phenyl-ureido)-N-(quinolin-8-yl)-6-(sulfa-moylamino)-hexanamide]
200 to 500 nM | COc1ccc(-c2nc(NC(=O)[C@H](CCCCNS(N)(=O)=O)NC(=O)OCc3ccccc3)sc2C)cc1 [Compound 289, (S)-benzyl 1-(4-(4-methoxy-phenyl)-5-methyl-thiazol-2-ylamino)-1-oxo-6-(sulfamoyl-amino)-hexan-2-ylcarbamate]
≤ 200 nM | NS(=O)(=O)NCCCC[C@H](NC(=O)OCc1cccc(Cl)c1)C(=O)Nc1nc(-c2ccccc2)cs1 [Compound 242, (S)-3-chlorobenzyl 1-oxo-1-(4-phenyl-thiazol-2-ylamino)-6-(sulfa-moylamino)-hexan-2-ylcarbamate]
≤ 200 nM | NS(=O)(=O)NCCCC[C@H](NC(=O)OCc1ccccc1)C(=O)Nc1nc(C(=O)Nc2ccccc2)cs1 [Compound 313, (S)-benzyl 1-oxo-1-(4-(phenyl-carbamoyl)-thiazol-2-ylamino)-6-(sulfamoyl-amino)-hexan-2-ylcarbamate]
≤ 200 nM | COc1cc(NC(=O)[C@H](CCCCNS(N)(=O)=O)NC(=O)OCc2ccccc2)c2ncccc2c1 [Compound 270, (S)-benzyl 1-(6-methoxy-quinolin-8-ylamino)-1-oxo-6-(sulfamoyl-amino)-hexan-2-ylcarbamate]
200 to 500 nM | NS(=O)(=O)NCCCC[C@H](NC(=O)OCc1ccccc1)C(=O)Nc1nc(-c2ccc(F)cc2)cs1 [Compound 318, (S)-benzyl 1-(4-(4-fluoro-phenyl)-thiazol-2-ylamino)-1-oxo-6-(sulfamoyl-amino)-hexan-2-ylcarbamate]
200 to 500 nM | COc1ccc2[nH]c(C)c(CC(=O)N[C@@H](CCCCNS(N)(=O)=O)C(=O)Nc3cccc4cccnc34)c2c1 [Compound 62, (S)-2-(2-(5-methoxy-2-methyl-1H-indol-3-yl)acetamido)-N-(quinolin-8-yl)-6-(sulfamoyl-amino)-hexanamide]
200 to 500 nM | COc1ccc(C(=O)N[C@@H](CCCCNS(N)(=O)=O)C(=O)Nc2cccc3cccnc23)cc1OC [Compound 207, (S)-3,4-dimethoxy-N-(1-oxo-1-(quinolin-8-ylamino)-6-(sulfamoyl-amino)hex-an-2-yl)-benzamide]
≤ 200 nM | NS(=O)(=O)NCCCC[C@H](NC(=O)OCc1ccccc1)C(=O)Nc1cccc(-c2ccccc2)c1 [Compound 310, (S)-benzyl 1-(biphenyl-3-ylamino)-1-oxo-6-(sulfamoyl-amino)-hexan-2-ylcarbamate]
≤ 200 nM | NS(=O)(=O)NCCCC[C@H](NC(=O)OCc1ccccc1)C(=O)Nc1nc(-c2ccc(C(F)(F)F)cc2)cs1 [Compound 308, (S)-benzyl 1-oxo-6-(sulfamoyl-amino)-1-(4-(4-(trifluoro-methyl)-phenyl)-thiazol-2-ylamino)-hexan-2-ylcarbamate]
